In patent US20050043551A1, “Method of obtaining 2-(2-nitrovinyl)-furan and the use thereof as a coccidiostatic” (priority 2001, published 2005):
Where “and” joins values, the source holds several entries; their conditions need not be identical. Identical values can stand only once.

What was measured:
[1] = Oral Half Lethal Dose (LD50) in hens; format: in vivo; conditions: several solvents, mature Leghorn hens
[2] = Oral Half Lethal Dose (LD50) in rats; format: in vivo; conditions: several solvents, female and male Sprague Dawley rats
[3] = format: cell-based
Description: (§1) In vitro mutagenesis studies were carried out using the micronucleus assay with blockade of cytokinesis with and without metabolic activation, as well as the sister chromatide exchange assay with and without metabolic activation. It was are carried out a theoretical study assisted by computer for the prognosis of the mutagenic activity.

[4] = In vitro sister chromatide exchange assay; format: cell-based; conditions: with and without metabolic activation
Description: as §1

Eimeria tenella = experiment: Artificial infection of chicks with Eimeria tenella oocysts (Example 2); format: in vivo; conditions: 1x10^5 E. tenella oocysts oral; for Weight gain in % during 9 days: 9 days treatment; for Mortality: deaths/12 birds
Description: To carried out the assay of the action of the synthesized product, the 2-(2nitrovynil)-furan, it was first dissolved first in an alcoholic solution at 3% and later in water, using several concentrations (2, 4, 8 μg/ml) of the alcohol-water solution, as is shown Table 2.
One day old, male, free of Coccidia, F1 fatten chicks were used. These birds were maintained in an appropriate condition, free of Coccidia until two weeks of age. For feeding, it was used the same food used to fatten chickens but free of anticoccididals.
5 groups of 12 poultry with similar weight were formed which received an inoculation of 1×10^5 oocysts of Eimeria tenella by oral route, using a esophagic canula. The treatment began when chicks had 15 days of age, 24 hours before receiving the inoculation, during a period of 9 days.
To evaluate the effectiveness of the product the gain of weight (% referred to the initial weight) and the death number approaches were used in each tratment.

E. tenella = experiment: Leghorn egg-laying hens naturally infected with E. tenella (Example 3); format: in vivo; conditions: 4 μg/mL in drinking water twice a day for 5 days, deaths/2000 birds
From the text: The 2-(2-nitrovynil)-furan, in a formulation similar to that described in the example 2, was applied, in the drinking water twice a day (8 am and 12 m) for 5 days, to 2000 Leghorn egg-laying hens of 56-84 days of age, infected naturally with E. tenella. Two houses highly infected by caecal coccidiosis with 2000 birds each were there was an average of 119 deaths per house in 5 days were selected. The diagnoses was made by the presence of bloody diarrheas, the observation of typical lesions in the blind intestine and abundant presence of parasite oocysts in the caecal content. Infected birds in a house was left as nontreated control and another no infected as neither infected nor treated control having the same range of age.
To evaluate the effectiveness of the product the approach described in the example 2 was used, except that as weight control. Except that as weight control 10 birds of each pen were randomly selected and weighed at the beginning and the end of the treatment.

[5] = test system: intestinal Coccidias (E. perforans, E. magna, E. media, E. exigua); experiment: Rabbits inoculated with oocysts of intestinal Eimeria (Example 4); format: in vivo; conditions: for Weight gain in % during 7 days: 4 μg/mL in drinking water for 5 days; for Mortality: 4 μg/mL, deaths/3 animals
Description: The 2-(2-nitrovynil)-furan, in a formulation similar to that described in the example 2, was dissolved in rabbits' drinking water and administered daily at libitum for 5 days. Two experiments (I, II), each one with 9 rabbits, were carried out. Each experiment had 3 treatments of 3 animals each one. Among treatments an infected no treated group and a group neither infected nor treated were considered.. In the 1st experiment each rabbit received 61×10^3 those of the 2nd experiment 116×10^3 oocysts of intestinal Coccidias. The present species were E. perforans 38%, E. magna 30%, E. media 22% and E. exigua 10%, with a 97.3% of sporulation. The initial and final weight difference and the deaths of animals after 7 days treatment was used as evaluation criteria.

[6] = test system: Coccidia (E. perforans, E. magna, E. media, E. exigua); experiment: Oocyst reduction in feces of treated rabbits in production conditions (Example 5); format: in vivo; conditions: 4 μg/ml in drinking water 5 days, before vs after 7 days
Description: The 2-(2-nitrovynil)-furan, in a formulation similar to that described in the example 2, was dissolved in rabbit's drinking water and administered daily at libitum for 5 days at concentration of 4 μg/ml. It were treated 1 246 newborn, young and adult rabbits of the Chinchilla, New White Zelanda and New Red Zelanda species belonging to 3 rabbit companies. The species of Coccidia present were E. perforans 34%, E. magna 32%, E. media 23% and E. exigua 11%. The amount of oocysts per gram of feces before and after 7 days of the treatment was determined to 20% of all treated animals. The difference between the number of oocysts before and after 7 days of treatment expressed as percentage of oocyst reduction, was taken as efficacy criterium.

[7] = Experiment I, 61 x 10^3 oocysts
[8] = Experiment II, 116 x 10^3 oocysts

O=[N+]([O-])C=Cc1ccco1 [2-(2-nitrovynil)-furan]
Half Lethal Dose (LD50) [1]: 1.02 g/kg of body mass
Half Lethal Dose (LD50) [2]: 171.91 mg/kg of body mass
Mutagenic activity, micronucleus assay [3]: did not shown mutagenic activity
Mutagenic activity, sister chromatide exchange assay [4]: did not shown mutagenic activity
Weight gain in % during 9 days (Eimeria tenella; dose 2 μg/mL): 78.79%
Mortality (Eimeria tenella; dose 2 μg/mL): 1/12
Mortality (Eimeria tenella; dose 4 μg/mL): no deaths and 0/12
Weight gain in % during 9 days (Eimeria tenella; dose 8 μg/mL): 63.95%
Mortality (Eimeria tenella; dose 8 μg/mL): 0/12
Mortality in 5 days (E. tenella): remarkable decrease of mortality and 15/2000
Weight gain in % during 7 days [5, 7]: 4%
Mortality [5, 7]: no mortality and 0/3
Weight gain in % during 7 days [5, 8]: 3%
Mortality [5, 8]: no deaths and 0/3
Reduction in % (oocysts per gram of feces) ([6]; Company 1, rabbits): 90%
Reduction in % (oocysts per gram of feces) ([6]; Company 2, rabbits): 99%
Reduction in % (oocysts per gram of feces) ([6]; Company 3, rabbits): 90%
